Measured values reported in patent US10766864B2, “Morphinan derivatives for the treatment of neuropathic pain” (Nektar Therapeutics, priority 2015, dated 2020).
Read-outs that look alike come from different tables or passages of the source.

Tests used:
[1] = molecular target: mu opioid receptor (MOR) (Homo sapiens (Human), UniProt P35372); assay: Competitive radioligand binding at MOR ([3H] Naloxone)
[2] = molecular target: hMOR (Homo sapiens (Human), UniProt P35372); assay: cAMP accumulation assay (inhibition of forskolin-stimulated cAMP) in CHO-K1 cells stably expressing hMOR; assay type: cell-based
Experimental: Mu opioid agonist activity for selected compounds was determined by the inhibition of forskolin-stimulated cAMP accumulation following MOR activation in CHO-K1 cells stably expressing the hMOR. […] IC50 values were calculated from […] analysis of the concentration-response curves using Graph Pad Prizm.

[3] = molecular target: NMDA receptor; assay: Competitive radioligand binding at NMDA receptor ([3H] MK801), rat forebrain membranes; details: 0.2 nM [3H] MK801, reflects free base activity
[4] = tested on: rat formalin paw model of persistent pain; assay: Automated formalin paw test, oral administration; assay type: in vivo; details: at at least one dosage between 10 mg/kg and 300 mg/kg (inclusive), in the presence of 1-aminobenzotriazole
Experimental: The in vivo efficacy of selected compounds following oral administration was measured using the rat formalin model of persistent pain. Test compounds were administered 30-60 minutes prior to injection of 5% formalin to the hind-paw of rats and paw movements were measured using the automated Nociception Analyzer (ANA Instrument; University of California, San Diego) for 60 minutes post-formalin. In some experiments, rats were pre-treated 16-22 hours priors to the experiment with the cytochrome-P450 inhibitor, 1-aminobenzotriazole (ABT), to assess the activity of compounds in the absence of significant quantities of metabolites. ED50 values (mg/kg) were calculated from non-linear regression analyses of the cumulative number of flinches in Phase II (10-60 mins) versus dose of test compounds.
In the rat formalin paw model of persistent pain, compounds 83, 113, 114 and 115 (described in Examples 83, 113, 114 and 115, respectively) were tested. In each case, the oral efficacy of the compounds was measured in the presence and absence of the cytochrome CYP-450 inhibitor, 1-aminobenzotriazole.

[5] = Phase II clinical study; cited from earlier work
[6] = membranes from CHO-K1 cells expressing MOR, 2 nM [3H] Naloxone, reflects free base activity, read-out: MOR IC50
[7] = hMOR-expressing CHO-K1 cells, 10 μM forskolin, 60 minute incubation, read-out: MOR cAMP IC50

COCCOCCOCC(=O)Nc1ccc2c(c1)[C@@]13CCCC[C@H]1[C@@H](C2)N(C)CC3 [Compound 33, 2-[2-(2-methoxyethoxy)ethoxy]-N-(17-methylmorphinan-3-yl)acetamide]
IC50 [1]: 100 to 1000 nM | IC50 [2]: 100 to 1000 nM | IC50 [3]: > 10000 nM

COCCOCCOc1ccc(Nc2ccc3c(c2)[C@@]24CCCC[C@H]2[C@@H](C3)N(C)CC4)cc1 [Compound 36, N-{4-[2-(2-methoxyethoxy)ethoxy]phenyl}-17-methylmorphinan-3-amine]
IC50 [1, 6]: 10 to 100 nM | IC50 [2, 7]: 10 to 100 nM | IC50 [3]: 1000 to 10000 nM

CN1CC[C@]23CCCC[C@H]2[C@H]1Cc1ccc(Nc2cccnc2)cc13 [Compound 43, 17-methyl-N-(pyridin-3-yl)morphinan-3-amine]
IC50 [1]: 0.1 to 10 nM | IC50 [2]: 0.1 to 10 nM | IC50 [3]: 0.1 to 100 nM

CN1CC[C@]23CCCC[C@H]2[C@H]1Cc1ccc(-c2cn[nH]c2)cc13 [Compound 44, 17-methyl-3-(1H-pyrazol-4-yl)morphinan]
IC50 [1]: 10 to 100 nM | IC50 [2]: 10 to 100 nM | IC50 [3]: 100 to 1000 nM

CN1CC[C@]23CCCC[C@H]2[C@H]1Cc1ccc(Nc2nccs2)cc13 [Compound 46, 17-methyl-N-(1,3-thiazol-2-yl)morphinan-3-amine]
IC50 [1]: 10 to 100 nM | IC50 [2]: 10 to 100 nM | IC50 [3]: 100 to 1000 nM

COCCOCCOCCOCCOCCOCC(=O)Nc1nc2cc3c(cc2s1)C[C@@H]1[C@@H]2CCCC[C@]32CCN1C [Compound 69]
IC50 [1, 6]: 100 to 1000 nM | IC50 [2, 7]: 100 to 1000 nM | IC50 [3]: 1000 to 10000 nM

COCCOCCN1CC[C@]23CCCC[C@H]2[C@H]1Cc1ccc(Nc2cccnc2)cc13 [Compound 83, 17-[2-(2-methoxyethoxy)ethyl]-N-(pyridin-3-yl)morphinan-3-amine]
IC50 [1]: 100 to 1000 nM | oral efficacy in Phase I and Phase II of the rat formalin paw model [4]: statistically significant efficacy | IC50 [3]: 1000 to 10000 nM

COCCN1CC[C@]23CCCC[C@H]2[C@H]1Cc1ccc(O)cc13 [Compound 113, 3-hydroxy-17-(2-methoxyethyl)morphinan]
IC50 [1]: 0.1 to 10 nM | IC50 [2]: 0.1 to 10 nM | oral efficacy in Phase I and Phase II of the rat formalin paw model [4]: statistically significant efficacy | IC50 [3]: 100 to 1000 nM

CN1CC[C@]23CCCC[C@H]2[C@H]1Cc1ccc(N)cc13 [Compound 114, 3-amino-17-morphinan]
IC50 [1]: 100 to 1000 nM | IC50 [2]: 100 to 1000 nM | oral efficacy in Phase I and Phase II of the rat formalin paw model [4]: statistically significant efficacy | IC50 [3]: 100 to 1000 nM

CN1CC[C@]23CCCC[C@H]2[C@H]1Cc1cc2sc(N)nc2cc13 [Compound 115, (4aR,5R,11bR)-14-methyl-2,3,4,4a,5,6-hexahydro-1H-5,11b-(epiminoethano)phenanthro[3,2-d]thiazol-9-amine]
IC50 [1, 6]: 10 to 100 nM | IC50 [2, 7]: 10 to 100 nM | oral efficacy in Phase I and Phase II of the rat formalin paw model [4]: statistically significant efficacy | IC50 [3]: 0.1 to 100 nM

CN1CC[C@]23CCCC[C@H]2[C@H]1Cc1ccc(O)cc13 [levorphanol, 17-Methylmorphinan-3-ol]
reduction of neuropathic pain [5]: effective in reducing neuropathic pain | side effects [5]: severe dose-limiting side effects
